Drawing on EP0429999A1, “Novel cephalosporins, process for their preparation and their use as medicaments” (BAYER AG, priority 1989, dated 1991), this text covers MIC for 1 molecule.

Common to all, as to assay: MIC (MHK), agar dilution on Iso-Sensitest agar, multipoint inoculator
What all share (assay type): cell-based

In assay [1] the test system is Enterococc. 27185. The settings on record: strain Enterococc. 27185; 37°C, read after ca. 20 h, ca. 10^4 colony-forming particles per inoculation point. The text has this: (§1) Die minimalen Hemmkonzentrationen (MHK) wurden per Reihenverdünnungsverfahren auf Iso-Sensitest Agar (Oxoid) bestimmt. Für jede Prüfsubstanz wurde eine Reihe von Agarplatten hergestellt, die bei jeweils doppelter Verdünnung abfallende Konzentrationen des Wirkstoffes enthielten. Die Agarplatten wurden mit einem MultipointInokulator (Denley) beimpft. Zum Beimpfen wurden Übernachtkulturen der Erreger verwandt, die zuvor so verdünnt wurden, daß jeder Impfpunkt ca. 10^4 koloniebildende Partikel enthielt. Die beimpften Agarplatten wurden bei 37°C bebrütet, und das Keimwachstum wurde nach ca. 20 Stunden abgelesen. Der MHK-Wert (µg/ml) gibt die niedrigste Wirkstoffkonzentration an, bei der mit bloßem Auge kein Keimwachstum zu erkennen war.
(§2) MHK-Werte: Agarverdünnung/Multipoint

Assay [2] deals with Strept. faec. 27101. The settings on record: strain Strept. faec. 27101; 37°C, read after ca. 20 h, ca. 10^4 colony-forming particles per inoculation point.
From the text: as §1, §2

The test system of assay [3] is Staph. epi. 25185. The settings on record: strain Staph. epi. 25185; 37°C, read after ca. 20 h, ca. 10^4 colony-forming particles per inoculation point.
From the text: as §1, §2

In assay [4] the test system is E. coli A 261. The settings on record: Escherichia coli, A261; strain E. coli A 261; 37°C, read after ca. 20 h, ca. 10^4 colony-forming particles per inoculation point.
From the text: as §1, §2

The test system of assay [5] is Staph. aur. 25455. The settings on record: strain Staph. aur. 25455; 37°C, read after ca. 20 h, ca. 10^4 colony-forming particles per inoculation point.
From the text: as §1, §2

Assay [6] has as its system Klebs. 6097. The settings on record: strain Klebs. 6097; 37°C, read after ca. 20 h, ca. 10^4 colony-forming particles per inoculation point.
From the text: as §1, §2

≈ marks a conversion by molar mass, not a printed value.

Take `C/C=C\C1=C(C(=O)O)N2C(=O)[C@@H](NC(=O)[C@H](N)c3cc4sc(N)nc4s3)[C@H]2SC1` [Beispiel 13a]: the MIC in assay [1] is 2 µg/mL (≈ 4.43 µM); in assay [2], 16 µg/mL (≈ 35.4 µM); in assay [3] it was at most 0.25 µg/mL; in assay [4], 4 µg/mL (≈ 8.86 µM); in assay [5], at most 0.25 µg/mL; in assay [6], 2 µg/mL (≈ 4.43 µM).

What is called MIC is the smallest concentration in the dilution series that meets the test's criterion for growth inhibition.
